Experiments:
soft tissue sarcoma = assay: Post-treatment biopsy of patients with soft tissue sarcoma (Example 2)
Oral bioavailability = conditions: in vivo
epithelioid sarcoma = assay: PD-L1, CD4 and CD8 staining of pre- and post-dose tissue biopsies of a subject with epithelioid sarcoma
[1] = test system: genetically defined cancer cells; assay: Target methyl mark inhibition and killing of cancer cells in vitro; assay type: cell-based
[2] = In vivo efficacy in animal models
[3] = test system: refractory B-cell non-Hodgkin lymphoma and advanced solid tumors, including epithelioid sarcoma; conditions: cited from earlier work

CCN(c1cc(-c2ccc(CN3CCOCC3)cc2)cc(C(=O)NCc2c(C)cc(C)[nH]c2=O)c1C)C1CCOCC1 [Compound 44, tazemetostat]
cells present in the tumor showing expression of PD-L1 (soft tissue sarcoma; biopsy after 20 weeks of treatment): more than 50% | cells present in the tumor showing expression of PD-L1 (soft tissue sarcoma; second patient, biopsy after 25 weeks of treatment): more than 80% | oral bioavailability (Oral bioavailability): orally bioavailable | PD-L1 expression in tumor after treatment (epithelioid sarcoma; 800 mg twice daily orally, 25 weeks, post-dose vs pre-dose biopsy): upregulated PD-L1 | T-cell markers CD4 and CD8 in tumors with upregulated PD-L1 (epithelioid sarcoma; after treatment): positive for T-cell markers CD4 and CD8 | CD8+ immune cells, share of overall cellularity (epithelioid sarcoma; post-dose sample, 800 mg twice daily orally, 25 weeks (pre-dose about 5%)): about 30% | CD4+ histiocytoid cells, cellularity (epithelioid sarcoma; post-dose sample, 800 mg twice daily orally, 25 weeks (pre-dose about 20%)): about 5% | CD4+ cells, share of overall cellularity (epithelioid sarcoma; post-dose sample, 800 mg twice daily orally, 25 weeks (pre-dose also about 2%)): about 2% | effect of target methyl mark inhibition on cancer cells [1]: killing of genetically defined cancer cells in vitro | in vivo efficacy following inhibition of target methyl mark [2]: sustained in vivo efficacy | PD-L1 expression in tumor sample ([3]; after 4 weeks of treatment): modest expression of PD-L1 on immune cells | histological assessment of on-treatment tumor specimen ([3]; not present at baseline nor at disease progression): strong immune infiltrate | clinical activity in patients ([3]; phase I clinical study): antitumor activity

Reference: patent US11602529B2, “Use of EZH2 inhibitors for treating cancer” (Epizyme, Inc., priority 2017, dated 2023)
